Measured values: a melting point compilation (Tetko et al.)

melting point [°C]	Compound
190 to 192	NNc1ccc(S(N)(=O)=O)cn1
164 to 166	O=Cc1c(N2CCOCC2)nc2ccccn12
125 to 127	CNS(=O)(=O)c1cccc(N)c1C
217 to 219	Nc1ccc(C(=O)NC2CCOCC2)cc1
341 to 343	O=C(O)c1ccc(-n2cncn2)nc1
289 to 291	Cc1nnc2[nH]cc(C(=O)NN)cc1-2
166 to 168	O=C(O)c1ccc(C2SCCS2)cc1
121 to 123	CC(C)(C(=O)O)n1cc([N+](=O)[O-])cn1
202 to 204	O=C(O)c1ccc(O)cc1F
205 to 207	NS(=O)(=O)c1scnc1C(=O)O
195 to 197	O=C(NC(Cc1ccccc1)C(=O)O)c1ccc(Cl)cc1 (configuration not stated)
68 to 70	Cc1cc(Br)cc(C=O)c1O
154 to 156	NNC(=O)Cc1ccccc1Cl
118 to 120	Nc1ccccc1S(=O)(=O)Nc1ccccc1
149 to 151	Cn1ccc(C(=O)N2CCC[C@H]2C(=O)O)cc1=O
131 to 133	Nc1ccc(=O)n(Cc2ccc(Cl)c(Cl)c2)c1
119 to 121	CCc1cc(C(=O)O)nn1C
36 to 38	OC(CC1CCCCCN1)c1ccccc1 (configuration not stated)
65 to 67	COc1cc(C(C)=O)ccc1OC(F)F
210 to 212	O=C(O)c1cc(C2CC2)nc2c1cnn2C1CCCCC1
100 to 102	CN(C)C(=O)COc1cccc(N)c1
84 to 86	Cc1cc(Br)c(O)c([N+](=O)[O-])c1
178 to 180	NS(=O)(=O)c1ccc(CCCl)cc1
132 to 134	CC1CNc2cccnc2O1 (configuration not stated)
96 to 98	Cc1ccc(CC(=O)O)cc1C
57 to 59	CCOc1cc(C=CC#N)ccc1OC
55 to 57	CC(=O)c1ccccc1NC(=O)CCCCl
193 to 195	Cc1cc(N)n(N)c(=O)c1

melting point [°C]	Compound
79 to 81	CC(=O)Nc1ccc(N)c(Br)c1
56 to 58	CC(C)(C)n1cc(N)cn1
91 to 93	CC(C(=O)O)c1cc2ccccc2o1 (configuration not stated)
200 to 202	Cc1nc2ccccc2c2c(N)c3ccccc3n12
152 to 154	O=C(O)C1CCN(c2ccc(Cl)cn2)CC1
146 to 148	CC(C)S(=O)(=O)c1ccc(CC(=O)O)cc1
185 to 187	Cc1nn(C(C)C)c(C)c1NC(=O)OCC(F)(F)F
161 to 163	Nc1ccc(NC(=O)NC2CC2)cc1
169 to 171	N#Cc1cccn2ccnc12
335 to 337	O=C(O)c1cc(/C=C/c2cccnc2)nc2ccc(Br)cc12
169 to 171	O=C(CCl)Nc1ccccc1C(=O)Nc1ccc2c(c1)OCO2
122 to 124	Cc1ccc(N(C(=O)CCCl)C2C=CS(=O)(=O)C2)cc1C (configuration not stated)
148 to 150	O=C(CBr)c1ccc(S(=O)(=O)N2CCOCC2)cc1
148 to 150	COCCCNc1c(N)n(Cc2ccccc2)c(=O)[nH]c1=O
93 to 95	COc1ccc2c(c1)OCC(C#N)=C2
61 to 63	O=C(NCC1CCCC1)n1ccnc1
39 to 41	Clc1ncnc2c1CCC2
301 to 303	c1nc(N2CCOCC2)c2nc[nH]c2n1
183 to 185	O=C(O)CCC1NC(=O)N(c2ccc(F)cc2F)C1=O (configuration not stated)
75 to 77	COc1cc(C=O)ccc1OCC#N
128 to 130	Cc1nn(-c2ccc(F)cc2)c(C)c1C=O
198 to 200	O=C(O)c1ccc2c(c1)C(=O)N(Cc1ccccc1)C2=O
189 to 191	O=S(=O)(NC1CCNCC1)c1ccc(Cl)cc1
164 to 166	O=C(Cc1nc2ccccc2s1)Nc1ccc(Cl)cc1
129 to 131	COC(=O)c1cccc(-c2nc(CCl)cs2)c1
250 to 252	Cc1ccc(-c2nnc(-c3ccc(C(=O)O)cc3)o2)cc1
253 to 255	N#Cc1ccc(=O)[nH]c1

Compound	melting point [°C]
Nc1nnn[nH]1	200 to 204
NC(=O)C(Cl)c1cccc(Br)c1 (configuration not stated)	109 to 111
